# Measurements taken from ChEMBL document CHEMBL2074461, “Functional characteristics and tissue distribution pattern of organic cation transporter 2 (OCTN2), an organic cation/carnitine transporter” (J Pharmacol Exp Ther, 1999).
# T1: OCTN2 (organic cation/carnitine transporter 2) (Homo sapiens, UniProt O76082)
# T1 sequence (O76082 whole entry): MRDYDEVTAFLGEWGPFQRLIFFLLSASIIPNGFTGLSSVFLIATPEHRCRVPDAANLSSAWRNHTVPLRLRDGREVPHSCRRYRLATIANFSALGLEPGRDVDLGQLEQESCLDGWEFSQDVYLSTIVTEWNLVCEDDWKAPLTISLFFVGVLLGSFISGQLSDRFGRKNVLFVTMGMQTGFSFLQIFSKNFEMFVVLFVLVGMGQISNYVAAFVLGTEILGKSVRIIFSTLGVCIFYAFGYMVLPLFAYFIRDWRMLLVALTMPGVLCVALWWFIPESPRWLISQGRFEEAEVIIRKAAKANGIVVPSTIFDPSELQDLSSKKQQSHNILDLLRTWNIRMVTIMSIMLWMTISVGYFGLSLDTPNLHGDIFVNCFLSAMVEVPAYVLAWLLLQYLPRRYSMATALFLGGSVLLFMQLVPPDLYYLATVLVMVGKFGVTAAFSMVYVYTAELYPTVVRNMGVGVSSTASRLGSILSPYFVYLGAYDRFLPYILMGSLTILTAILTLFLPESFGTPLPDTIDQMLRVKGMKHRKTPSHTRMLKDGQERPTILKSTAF
# T2: OCTN2 (organic cation/carnitine transporter 2) (Rattus norvegicus, UniProt O70594)
# T2 sequence (O70594 whole entry): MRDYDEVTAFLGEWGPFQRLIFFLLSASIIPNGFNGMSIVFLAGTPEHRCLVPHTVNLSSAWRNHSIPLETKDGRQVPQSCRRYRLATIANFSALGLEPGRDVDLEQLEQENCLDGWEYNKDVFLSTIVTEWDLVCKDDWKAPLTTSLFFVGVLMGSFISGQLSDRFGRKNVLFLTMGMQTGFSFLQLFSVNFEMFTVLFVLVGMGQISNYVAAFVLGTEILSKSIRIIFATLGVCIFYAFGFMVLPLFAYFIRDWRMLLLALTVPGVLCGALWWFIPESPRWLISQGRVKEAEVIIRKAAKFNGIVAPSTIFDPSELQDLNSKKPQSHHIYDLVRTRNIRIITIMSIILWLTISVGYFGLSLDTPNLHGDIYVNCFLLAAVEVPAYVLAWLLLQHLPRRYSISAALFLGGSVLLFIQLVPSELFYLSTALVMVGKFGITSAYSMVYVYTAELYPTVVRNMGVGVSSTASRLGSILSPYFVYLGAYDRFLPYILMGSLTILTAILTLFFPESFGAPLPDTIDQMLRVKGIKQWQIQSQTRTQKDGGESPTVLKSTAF
# T3: Organic cation/carnitine transporter 2 (Rattus norvegicus, UniProt O70594)
# T3 sequence (O70594 whole entry): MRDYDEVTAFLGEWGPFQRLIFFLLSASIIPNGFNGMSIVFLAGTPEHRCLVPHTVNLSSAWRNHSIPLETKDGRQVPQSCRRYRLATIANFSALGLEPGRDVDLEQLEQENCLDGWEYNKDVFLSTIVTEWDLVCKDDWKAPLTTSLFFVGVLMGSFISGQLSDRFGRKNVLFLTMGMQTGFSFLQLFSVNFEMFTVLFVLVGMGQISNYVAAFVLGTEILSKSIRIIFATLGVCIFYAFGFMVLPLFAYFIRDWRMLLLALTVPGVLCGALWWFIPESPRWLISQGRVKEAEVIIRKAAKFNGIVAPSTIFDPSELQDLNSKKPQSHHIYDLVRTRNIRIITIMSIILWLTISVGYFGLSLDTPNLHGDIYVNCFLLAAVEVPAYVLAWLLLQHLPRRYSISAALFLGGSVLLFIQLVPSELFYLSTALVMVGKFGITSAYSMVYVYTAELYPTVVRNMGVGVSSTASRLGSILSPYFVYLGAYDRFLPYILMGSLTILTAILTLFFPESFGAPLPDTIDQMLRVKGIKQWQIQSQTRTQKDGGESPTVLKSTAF
# T4: Organic cation/carnitine transporter 2 (Homo sapiens, UniProt O76082)
# T4 sequence (O76082 whole entry): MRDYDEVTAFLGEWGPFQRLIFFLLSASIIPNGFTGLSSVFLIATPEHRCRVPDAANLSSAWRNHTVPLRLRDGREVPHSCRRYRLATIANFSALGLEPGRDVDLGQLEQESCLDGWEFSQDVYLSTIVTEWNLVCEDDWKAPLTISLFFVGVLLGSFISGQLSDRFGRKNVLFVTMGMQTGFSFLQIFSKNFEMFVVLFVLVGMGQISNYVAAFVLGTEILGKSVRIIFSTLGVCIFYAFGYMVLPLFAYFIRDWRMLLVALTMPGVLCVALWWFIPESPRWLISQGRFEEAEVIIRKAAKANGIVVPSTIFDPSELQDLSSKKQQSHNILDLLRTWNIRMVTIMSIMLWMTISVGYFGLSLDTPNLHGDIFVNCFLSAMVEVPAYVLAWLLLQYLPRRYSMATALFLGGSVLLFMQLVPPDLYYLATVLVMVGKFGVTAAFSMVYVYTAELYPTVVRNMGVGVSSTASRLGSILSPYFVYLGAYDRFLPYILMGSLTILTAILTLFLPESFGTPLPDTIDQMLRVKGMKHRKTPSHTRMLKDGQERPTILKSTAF
# Legend:
# [1] = biological target: T1, OCTN2 (organic cation/carnitine transporter 2); assay: (§1) TP_TRANSPORTER: inhibition of Carnitine uptake (Carnitine: 0.025 uM, MPTP: 2000 uM) in OCTN2-expressing HRPE cells; assay type: functional, cell-based; design: scale not given: the % may be the effect or the level left; settings: HRPE cells expressing OCTN2, probe carnitine (0.025 uM), read-out: Activity
# [2] = biological target: T2, OCTN2 (organic cation/carnitine transporter 2); assay: as §1; assay type: functional, cell-based; design: scale not given: the % may be the effect or the level left; settings: human, HRPE cells expressing OCTN2, probe carnitine (0.025 uM); read-out: Activity
# [3] = biological target: T3, Organic cation/carnitine transporter 2; assay: TP_TRANSPORTER: inhibition of TEA uptake (TEA: 20 uM, MPTP: 2500 uM) in OCTN2-expressing HRPE cells; assay type: functional, cell-based; settings: human
# [4] = biological target: T3, Organic cation/carnitine transporter 2; assay: TP_TRANSPORTER: inhibition of TEA uptake (TEA: 20 uM, MPP+: 2500 uM) in OCTN2-expressing HRPE cells; assay type: functional, cell-based; settings: human
# [5] = biological target: T3, Organic cation/carnitine transporter 2; assay: (§2) TP_TRANSPORTER: uptake in OCTN2-expressing HRPE cells; assay type: functional, cell-based; settings: human
# [6] = biological target: T2, OCTN2 (organic cation/carnitine transporter 2); assay: TP_TRANSPORTER: inhibition of Carnitine uptake (Carnitine: 0.025 uM, Acetyl-L-carnitine: 500 uM) in OCTN2-expressing HRPE cells; assay type: functional, cell-based; design: scale not given: the % may be the effect or the level left; settings: human, HRPE cells expressing OCTN2, probe carnitine (0.025 uM); read-out: Activity
# [7] = biological target: T3, Organic cation/carnitine transporter 2; assay: TP_TRANSPORTER: inhibition of TEA uptake (TEA: 20 uM, Amphetamine: 2500 uM) in OCTN2-expressing HRPE cells; assay type: functional, cell-based; settings: human
# [8] = biological target: T2, OCTN2 (organic cation/carnitine transporter 2); assay: TP_TRANSPORTER: inhibition of Carnitine uptake (Carnitine: 0.025 uM, Betaine: 500 uM) in OCTN2-expressing HRPE cells; assay type: functional, cell-based; design: scale not given: the % may be the effect or the level left; settings: human, HRPE cells expressing OCTN2, probe carnitine (0.025 uM); read-out: Activity
# [9] = biological target: T2, OCTN2 (organic cation/carnitine transporter 2); assay: in vitro; settings: human, HRPE cells expressing OCTN2, probe carnitine (0.025 uM)
# Description: (§3) TP_TRANSPORTER: inhibition of Carnitine uptake (Carnitine: 0.025 uM, Choline: 2000 uM) in OCTN2-expressing HRPE cells
# [10] = biological target: T1, OCTN2 (organic cation/carnitine transporter 2); assay: in vitro; settings: HRPE cells expressing OCTN2, probe carnitine (0.025 uM)
# Description: as §3
# [11] = biological target: T2, OCTN2 (organic cation/carnitine transporter 2); assay: in vitro; settings: human, HRPE cells expressing OCTN2, probe carnitine (0.025 uM); remark: listed apart in the source
# Description: TP_TRANSPORTER: inhibition of Carnitine uptake (Carnitine: 0.025 uM, Cimetidine: 2000 uM) in OCTN2-expressing HRPE cells
# [12] = biological target: T1, OCTN2 (organic cation/carnitine transporter 2); assay: TP_TRANSPORTER: inhibition of Carnitine uptake (Carnitine: 0.025 uM, Desipramine: 500 uM) in OCTN2-expressing HRPE cells; assay type: functional, cell-based; design: scale not given: the % may be the effect or the level left; settings: HRPE cells expressing OCTN2, probe carnitine (0.025 uM), read-out: Activity
# [13] = biological target: T3, Organic cation/carnitine transporter 2; assay: TP_TRANSPORTER: inhibition of TEA uptake (TEA: 20 uM, Desipramine: 2500 uM) in OCTN2-expressing HRPE cells; assay type: functional, cell-based; settings: human
# [14] = biological target: T3, Organic cation/carnitine transporter 2; assay: TP_TRANSPORTER: inhibition of TEA uptake (TEA: 20 uM, Guanidine: 2500 uM) in OCTN2-expressing HRPE cells; assay type: functional, cell-based; settings: human
# [15] = biological target: T3, Organic cation/carnitine transporter 2; assay: TP_TRANSPORTER: inhibition of TEA uptake (TEA: 20 uM, Methanphetamine: 2500 uM) in OCTN2-expressing HRPE cells; assay type: functional, cell-based; settings: human
# [16] = biological target: T3, Organic cation/carnitine transporter 2; assay: TP_TRANSPORTER: inhibition of TEA uptake (TEA: 20 uM, Norepinephrine: 2500 uM) in OCTN2-expressing HRPE cells; assay type: functional, cell-based; settings: human
# [17] = biological target: T3, Organic cation/carnitine transporter 2; assay: TP_TRANSPORTER: inhibition of TEA uptake (TEA: 20 uM, Procainamide: 2500 uM) in OCTN2-expressing HRPE cells; assay type: functional, cell-based; settings: human
# [18] = biological target: T4, Organic cation/carnitine transporter 2; assay: as §2; assay type: functional, cell-based
# [19] = biological target: T3, Organic cation/carnitine transporter 2; assay: TP_TRANSPORTER: inhibition of TEA uptake (TEA: 20 uM, Serotonin: 2500 uM) in OCTN2-expressing HRPE cells; assay type: functional, cell-based; settings: human
# [20] = biological target: T3, Organic cation/carnitine transporter 2; assay: TP_TRANSPORTER: inhibition of TEA uptake (TEA: 20 uM, THA: 2500 uM) in OCTN2-expressing HRPE cells; assay type: functional, cell-based; settings: human
# [21] = biological target: T3, Organic cation/carnitine transporter 2; assay: TP_TRANSPORTER: inhibition of TEA uptake (TEA: 20 uM, TMA: 2500 uM) in OCTN2-expressing HRPE cells; assay type: functional, cell-based; settings: human
# [22] = biological target: T2, OCTN2 (organic cation/carnitine transporter 2); assay: in vitro; settings: human, HRPE cells expressing OCTN2, probe carnitine (0.025 uM); remark: listed apart in the source
# Description: (§4) TP_TRANSPORTER: inhibition of Carnitine uptake (Carnitine: 0.025 uM, TEA: 2000 uM) in OCTN2-expressing HRPE cells
# [23] = biological target: T1, OCTN2 (organic cation/carnitine transporter 2); assay: in vitro; settings: HRPE cells expressing OCTN2, probe carnitine (0.025 uM); remark: listed apart in the source
# Description: as §4
# [24] = substrate: C[N+](C)(C)CC(O)CC(=O)[O-]; assay: as §2; assay type: functional, cell-based
# [25] = substrate: CC[N+](CC)(CC)CC; assay: cells, lysate or membranes named
molecule,measurement,setting,value
CN1CC=C(c2ccccc2)CC1,activity at 2000 µM,[1],47%
same,activity at 2000 µM,[2],4%
same,Inhibition,[3],inhibitor [50-75 % inhibition]
C[n+]1ccc(-c2ccccc2)cc1,Inhibition,[4],inhibitor [50-75 % inhibition]
CC(=O)O[C@H](CC(=O)[O-])C[N+](C)(C)C [ACETYLCARNITINE],Activity,[5],substrate [+]
same,activity at 500 µM,[6],1%
CC(N)Cc1ccccc1 (stereo unspecified) [AMPHETAMINE],Inhibition,[7],inhibitor [20-30 % inhibition]
C[N+](C)(C)CC(=O)O [BETAINE],activity at 500 µM,[8],51%
C[N+](C)(C)CCO [CHOLINE],activity at 2000 µM,[9],24%
same,activity at 2000 µM,[10],82%
CN/C(=N/CCSCc1nc[nH]c1C)NC#N [CIMETIDINE],activity at 2000 µM,[11],29%
CNCCCN1c2ccccc2CCc2ccccc21 [DESIPRAMINE],activity at 500 µM,[12],0%
same,Inhibition,[13],inhibitor [90-95 % inhibition]
N=C(N)N [GUANIDINE],Activity,[14],is not an inhibitor [-]
CN[C@@H](C)Cc1ccccc1 [METHAMPHETAMINE],Inhibition,[15],inhibitor [20-30 % inhibition]
NC[C@H](O)c1ccc(O)c(O)c1 [NOREPINEPHRINE],Activity,[16],is not an inhibitor [-]
CCN(CC)CCNC(=O)c1ccc(N)cc1 [PROCAINAMIDE],Inhibition,[17],inhibitor [50-75 % inhibition]
CCC(=O)OC(CC(=O)[O-])C[N+](C)(C)C (stereo unspecified) [Propionyl-Carnitine],Activity,[5],substrate [+]
same,Activity,[18],substrate [+]
NCCc1c[nH]c2ccc(O)cc12 [SEROTONIN],Activity,[19],is not an inhibitor [-]
CCCCCC[N+](CCCCCC)(CCCCCC)CCCCCC [TETRAHEXYLAMMONIUM],Inhibition,[20],inhibitor [90-95 % inhibition]
C[N+](C)(C)C.[Cl-] [TETRAMETHYLAMMONIUM],Inhibition,[21],inhibitor [20-30 % inhibition]
CC[N+](CC)(CC)CC [TETRYLAMMONIUM],activity at 2000 µM,[22],4%
same,activity at 2000 µM,[23],40%
Organic cation/carnitine transporter 2 (Rattus norvegicus) (protein) MRDYDEVTAFLGEWGPFQRLIFFLLSASIIPNGFNGMSIVFLAGTPEHRCLVPHTVNLSSAWRNHSIPLETKDGRQVPQSCRRYRLATIANFSALGLEPGRDVDLEQLEQENCLDGWEYNKDVFLSTIVTEWDLVCKDDWKAPLTTSLFFVGVLMGSFISGQLSDRFGRKNVLFLTMGMQTGFSFLQLFSVNFEMFTVLFVLVGMGQISNYVAAFVLGTEILSKSIRIIFATLGVCIFYAFGFMVLPLFAYFIRDWRMLLLALTVPGVLCGALWWFIPESPRWLISQGRVKEAEVIIRKAAKFNGIVAPSTIFDPSELQDLNSKKPQSHHIYDLVRTRNIRIITIMSIILWLTISVGYFGLSLDTPNLHGDIYVNCFLLAAVEVPAYVLAWLLLQHLPRRYSISAALFLGGSVLLFIQLVPSELFYLSTALVMVGKFGITSAYSMVYVYTAELYPTVVRNMGVGVSSTASRLGSILSPYFVYLGAYDRFLPYILMGSLTILTAILTLFFPESFGAPLPDTIDQMLRVKGIKQWQIQSQTRTQKDGGESPTVLKSTAF,Km,[24],14.8 µM
same,Km,[25],63 µM
